Drawing on patent US8975417B2, “Pyrazolopyrrolidine derivatives and their use in the treatment of disease” (Novartis AG, priority 2013, dated 2015), this text covers IC50 and IC (total growth inhibition) for 13 molecules.

SMILES strings stand for the structures.

Test [1] deals with nuclear BRD4-NUT foci in HCC2494 NUT midline carcinoma cells (Homo sapiens (Human), UniProt O60885+Q86Y26). The test is described as follows: Nut-foci formation assay. Conditions: 24 hours, read-out: HCS Brd4-NUT IC50. The test is classed as cell-based. As to the method:
HCC2494 NUT midline carcinoma cells (expressing BRD4-NUT-fusion) were obtained from the University of Texas Southwestern and cultured in RPMI-1640 medium containing 10% Foetal Calf Serum at 37° C. in a humidified 5% CO2 incubator.
Compound-mediated inhibition of BRD4 activity was monitored by quantification of the number and intensity of nuclear BRD4-NUT foci using automated immunofluorescence microscopy. Briefly, 5000 cells in 20 μL fresh medium were seeded into Poly-D-Lysine-precoated 384-well plates and incubated overnight at 37° C. and 5% CO2, followed by addition of 5 μl medium containing compound dilutions at 5-fold their final intended concentration. Dose-response effects were assessed by 3-fold serial dilutions of the test compound, starting at 10 μM. Following incubation of the cells for 24 hours at 37° C. and 5% CO2, the cells were fixed by incubation with 3.7% formaldehyde for 10 min, followed by immunofluorescence staining using rabbit anti-NUT (Cell Signaling Technologies, Cat#3625) as primary, and AlexaFluor488-labeled goat anti-rabbit (Invitrogen, Cat#A11008) as secondary antibody (latter complemented with 1 μg/mL Hoechst33342 as DNA dye). Assay plates were imaged using the appropriate filter sets on the Cellomics VTi automated fluorescence microscopy platform (ThermoFisher Scientific) and the population average of the number of NUT-foci per nucleus is quantified using the Cellomics Spot Detection BioApplication image analysis algorithm (ThermoFisher Scientific). The effect of a particular test compound concentration on NUT-foci number and intensity is expressed as percentage of the value obtained for cells treated with vehicle only (DMSO, 0.1% final concentration), which was set as 100. Compound concentrations leading to half-maximal (IC50) inhibition of the aforementioned readout parameters were determined using standard four parameter curve fitting.

In test [2] the test system is MV-4-11 cells. In words: Cell growth inhibition assay (CellTiter-Glo), MV-4-11. Conditions: Homo sapiens, MV4-11, read-out: MV-4-11 TGI. The test is classed as cell-based. The method in brief:
(§1)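 Luminescent ATP quantification served as the viability read-out following incubation at 37° C. under 5% CO2. A day-0 reference plate allowed scaling from −100% (medium) to 100% (0.1% DMSO vehicle), with IC50 and TGI fitted by a four-parameter model.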
For orientation: ATP-based viability assays read luminescence as a measure of living cells.

In test [3] the target is His-Brd2(60-472) (Homo sapiens (Human), UniProt P25440). In words: TR-FRET in-vitro binding assay for BRD2. Conditions: biochemical. In outline: (§2)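 Assay buffer HEPES pH 7.5/NaCl/Tween20/BSA; protein solution 45 nM, peptide solution 60 nM acetyl-H4 (AcK5,8,12,16). Incubated 30 °C for 35 min; Eu-anti-His6 and SA-APC detection, TR-FRET read.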
Chain of His-Brd2(60-472) (P25440 60-472): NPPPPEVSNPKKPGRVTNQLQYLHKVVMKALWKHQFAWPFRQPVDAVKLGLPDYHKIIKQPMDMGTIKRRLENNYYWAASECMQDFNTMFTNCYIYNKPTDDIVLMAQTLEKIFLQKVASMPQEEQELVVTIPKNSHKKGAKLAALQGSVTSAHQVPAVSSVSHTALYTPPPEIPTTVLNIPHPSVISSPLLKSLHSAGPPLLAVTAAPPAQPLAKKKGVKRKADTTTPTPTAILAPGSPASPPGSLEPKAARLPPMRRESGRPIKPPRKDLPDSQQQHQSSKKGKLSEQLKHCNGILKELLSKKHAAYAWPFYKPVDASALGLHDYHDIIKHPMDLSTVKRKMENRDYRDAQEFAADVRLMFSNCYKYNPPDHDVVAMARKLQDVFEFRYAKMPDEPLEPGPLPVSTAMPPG
(In general: Time-resolved FRET reads energy transfer from a long-lived donor to a nearby acceptor.)

In test [4] the target is His-Brd4(44-477) (Homo sapiens (Human), UniProt O60885). The test is described as follows: TR-FRET in-vitro binding assay for BRD4. Conditions: biochemical. The method in brief: as §2
Test [5] has as its system THP-1 cells. In words: Cell growth inhibition assay (CellTiter-Glo), THP-1. Conditions: Homo sapiens, read-out: THP-1 TGI. The test is classed as cell-based. The method in brief:
as §1

For test [6], the system named is K-562 cells. In words: Cell growth inhibition assay (CellTiter-Glo), K-562. The test is classed as cell-based, human. Conditions: Homo sapiens, K562, read-out: K-562 TGI. In outline:
as §1

Test [7] deals with His-Brd3(20-477) (Homo sapiens (Human), UniProt Q15059). In words: TR-FRET in-vitro binding assay for BRD3. Conditions: biochemical. In outline: as §2
Chain of His-Brd3(20-477) (Q15059 20-477): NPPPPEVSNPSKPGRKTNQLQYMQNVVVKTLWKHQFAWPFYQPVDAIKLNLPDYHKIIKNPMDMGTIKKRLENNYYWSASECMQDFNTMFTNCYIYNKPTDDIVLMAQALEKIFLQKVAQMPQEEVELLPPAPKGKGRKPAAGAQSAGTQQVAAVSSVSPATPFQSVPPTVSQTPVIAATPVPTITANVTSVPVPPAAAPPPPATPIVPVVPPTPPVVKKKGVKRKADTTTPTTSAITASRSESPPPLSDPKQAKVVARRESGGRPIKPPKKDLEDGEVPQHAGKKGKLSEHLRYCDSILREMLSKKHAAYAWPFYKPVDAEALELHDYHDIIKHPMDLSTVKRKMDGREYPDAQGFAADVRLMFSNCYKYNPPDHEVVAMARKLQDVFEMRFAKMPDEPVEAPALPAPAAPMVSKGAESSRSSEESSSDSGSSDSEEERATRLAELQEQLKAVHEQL
In test [8] the target is His-CREBBP (1081-1197) bromodomain (Homo sapiens (Human), UniProt Q92793). In words: AlphaScreen in-vitro binding assay for CREBBP. Conditions: biochemical. In outline:
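Ni-chelate acceptor and streptavidin donor beads (45 µg/mL each, in 50 mM HEPES pH 7.5, 150 mM NaCl, 0.02% BSA) were then added for 60 min at room temperature. IC50 came from 8-point non-linear regression.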
On the technique in general: Alpha assays give light when donor and acceptor beads are brought close together.

Chain of His-CREBBP (1081-1197) bromodomain (Q92793 1081-1197): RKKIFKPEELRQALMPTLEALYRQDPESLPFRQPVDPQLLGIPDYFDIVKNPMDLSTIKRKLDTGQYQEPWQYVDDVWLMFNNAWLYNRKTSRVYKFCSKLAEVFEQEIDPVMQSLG

As for `Cc1cc(N2C(=O)c3n[nH]cc3C2c2ccc(Cl)cc2)cn(C)c1=O` (centres unmarked) [Example 26, 4-(4-chlorophenyl)-5-(1,5-dimethyl-6-oxo-1,6-dihydropyridin-3-yl)-4,5-dihydropyrrolo[3,4-c]pyrazol-6(2H)-one], the IC50 in test [1] is 698 nM; in test [3], 210 nM; in test [4] it was 150 nM. Moreover, the IC (total growth inhibition) is 0.317 µM in test [2], 0.772 µM in test [5] and over 10 µM in test [6].
Consider `CCc1nn(CCOC)c2c1C(c1ccc(Cl)cc1)N(c1cc(C)c(=O)n(C)c1)C2=O` (centres unmarked) [Example 86, 4-(4-chlorophenyl)-5-(1,5-dimethyl-6-oxo-1,6-dihydropyridin-3-yl)-3-ethyl-1-(2-methoxyethyl)-4,5-dihydropyrrolo[3,4-c]pyrazol-6(1H)-one], for which the IC50 in test [1] was found to be 38.4 nM. For the same molecule, the values for the IC (total growth inhibition) in test [2], in test [5] and in test [6] were 0.0548 µM, 0.123 µM and over 10 µM, respectively.
In the case of `Cc1nn(C2CC2)c2c1C(c1cccc(OC(F)(F)F)c1)N(c1cc(C)c(=O)n(C)c1)C2=O` (centres unmarked) [Example 91, 1-cyclopropyl-5-(1,5-dimethyl-6-oxo-1,6-dihydropyridin-3-yl)-3-methyl-4-(3-(trifluoromethoxy)phenyl)-4,5-dihydropyrrolo[3,4-c]pyrazol-6(1H)-one], the IC50 in test [1] worked out at 736 nM. Further, the IC (total growth inhibition) in test [2] is 0.978 µM; in test [5] it was 1.44 µM; in test [6], over 10 µM.
Consider `Cc1nn(C2CC2)c2c1[C@H](c1ccc(Cl)cc1)N(c1cc(C)c3nnc(C)n3n1)C2=O` [Example 123, (S)-4-(4-chlorophenyl)-1-cyclopropyl-5-(3,8-dimethyl-[1,2,4]triazolo[4,3-b]pyridazin-6-yl)-3-methyl-4,5-dihydropyrrolo[3,4-c]pyrazol-6(1H)-one], for which the IC50 is 8910 nM in test [1] and 14000 nM in test [4]. The IC (total growth inhibition) in test [2] was 5.81 µM; in test [5], over 10 µM; in test [6], over 10 µM.
In the case of `Cc1cc(N2C(=O)c3c(c(CO)nn3C3CC3)C2c2ccc(Cl)cc2)cn(C)c1=O` (centres unmarked) [Example 133, 4-(4-chlorophenyl)-1-cyclopropyl-5-(1,5-dimethyl-6-oxo-1,6-dihydropyridin-3-yl)-3-(hydroxymethyl)-4,5-dihydropyrrolo[3,4-c]pyrazol-6(1H)-one], the IC50 in test [1] was determined as 64.7 nM; in test [4], 79 nM; in test [7] it was 80 nM. Besides, the IC (total growth inhibition) in test [2] is 0.102 µM; in test [5], 0.327 µM; in test [6] it was over 10 µM.
Take `Cc1nn(C2CNC2)c2c1C(c1ccc(Cl)cc1)N(c1cc(C)c(=O)n(C)c1)C2=O` (centres unmarked) [Example 138, 1-(azetidin-3-yl)-4-(4-chlorophenyl)-5-(1,5-dimethyl-6-oxo-1,6-dihydropyridin-3-yl)-3-methyl-4,5-dihydropyrrolo[3,4-c]pyrazol-6(1H)-one]: the results for the 50% inhibitory concentration (IC50) in test [1], in test [4] and in test [7] were 845 nM, 290 nM and 240 nM, respectively. In addition, the figures for the IC (total growth inhibition) in test [2], in test [5] and in test [6] were 0.353 µM, 1.51 µM and over 10 µM, respectively.
With `CCn1nc2c(c1C)C(c1ccc(F)cc1F)N(c1cc(C)c3nnc(C)n3c1)C2=O` (centres unmarked) [Example 182, 4-(2,4-difluorophenyl)-5-(3,8-dimethyl-[1,2,4]triazolo[4,3-a]pyridin-6-yl)-2-ethyl-3-methyl-4,5-dihydropyrrolo[3,4-c]pyrazol-6(2H)-one], the figures for the IC (total growth inhibition) in test [2], in test [5] and in test [6] were 0.12 µM, 0.217 µM and over 10 µM, respectively. In addition, the IC50 was determined as 120 nM in test [3], 46 nM in test [4], 51 nM in test [7] and 27000 nM in test [8].
As for `COc1ncccc1-n1nc(C)c2c1C(=O)N(c1cc(C)c3nnc(C)n3c1)C2c1ccc(Cl)cc1F` (centres unmarked) [Example 184, 4-(4-chloro-2-fluorophenyl)-5-(3,8-dimethyl-[1,2,4]triazolo[4,3-a]pyridin-6-yl)-1-(2-methoxypyridin-3-yl)-3-methyl-4,5-dihydropyrrolo[3,4-c]pyrazol-6(1H)-one], the figures for the IC (total growth inhibition) in test [2], in test [5] and in test [6] were 0.136 µM, 0.337 µM and over 10 µM, respectively. In addition, the IC50 in test [3] was 47 nM; in test [4], 29 nM; in test [7] it was 36 nM; in test [8], 24000 nM.
As for `CCn1nc(C)c2c1C(=O)N(c1cc(C)c3nnc(C)n3c1)C2c1ccc(Cl)cc1F` (centres unmarked) [Example 185, 4-(4-chloro-2-fluorophenyl)-5-(3,8-dimethyl-[1,2,4]triazolo[4,3-a]pyridin-6-yl)-1-ethyl-3-methyl-4,5-dihydropyrrolo[3,4-c]pyrazol-6(1H)-one], the IC (total growth inhibition) in test [2] was 0.0427 µM; in test [5], 0.0877 µM; in test [6] it was over 10 µM. Moreover, the 50% inhibitory concentration (IC50) in test [3] was 71 nM; in test [4] it was under 37 nM; in test [7], 36 nM; in test [8] it was 14200 nM.
Take `CCn1nc2c(c1C)C(c1ccc(Cl)cc1F)N(c1cc(C)c3nnc(C)n3c1)C2=O` (centres unmarked) [Example 186, 4-(4-chloro-2-fluorophenyl)-5-(3,8-dimethyl-[1,2,4]triazolo[4,3-a]pyridin-6-yl)-2-ethyl-3-methyl-4,5-dihydropyrrolo[3,4-c]pyrazol-6(2H)-one]: the IC (total growth inhibition) in test [2] is 0.0882 µM; in test [5], 0.145 µM; in test [6], over 10 µM. In addition, the IC50 amounted to 140 nM in test [3], 69 nM in test [4], 61 nM in test [7] and 6100 nM in test [8].
With `Cc1nn(C(C)C)c2c1[C@@H](c1ccc(Cl)cc1F)N(c1cc(C)c3nnc(C)n3c1)C2=O` [Example 189, (S)-4-(4-chloro-2-fluorophenyl)-5-(3,8-dimethyl-[1,2,4]triazolo[4,3-a]pyridin-6-yl)-1-isopropyl-3-methyl-4,5-dihydropyrrolo[3,4-c]pyrazol-6(1H)-one], the results for the IC (total growth inhibition) in test [2], in test [5] and in test [6] were 0.0269 µM, 0.0261 µM and over 10 µM, respectively. For the same molecule, the 50% inhibitory concentration (IC50) in test [3] came out at 40 nM; in test [4], 29 nM; in test [7], 33 nM; in test [8], 3800 nM.
Turning to `COc1ncccc1-n1nc2c(c1C)C(c1ccc(Cl)cc1F)N(c1cc(C)c3nnc(C)n3c1)C2=O` (centres unmarked) [Example 194, 4-(4-chloro-2-fluorophenyl)-5-(3,8-dimethyl-[1,2,4]triazolo[4,3-a]pyridin-6-yl)-2-(2-methoxypyridin-3-yl)-3-methyl-4,5-dihydropyrrolo[3,4-c]pyrazol-6(2H)-one], the results for the IC (total growth inhibition) in test [2], in test [5] and in test [6] were 0.0936 µM, 0.174 µM and over 10 µM, respectively. Further, the IC50 in test [3] turned out to be 90 nM; in test [4] it was 45 nM; in test [7] it was 65 nM; in test [8] it was 5200 nM.
Take `Cc1nn(C2CC2)c2c1C(c1ccc(Cl)cc1)N(c1cc(C)c3nnc(C(F)F)n3n1)C2=O` (centres unmarked) [Example 195, 4-(4-chlorophenyl)-1-cyclopropyl-5-(3-(difluoromethyl)-8-methyl-[1,2,4]triazolo[4,3-b]pyridazin-6-yl)-3-methyl-4,5-dihydropyrrolo[3,4-c]pyrazol-6(1H)-one]: the IC (total growth inhibition) in test [2] is 0.0452 µM; in test [5] it was 0.0804 µM; in test [6], over 10 µM. For the same molecule, the IC50 in test [3] was 20 nM; in test [4] it was under 11 nM; in test [7] it was 16 nM; in test [8] it was over 37000 nM.

By IC50 is commonly meant the midpoint of a concentration-inhibition curve.
